Laboratory results reported in PubChem BioAssay AID256 (DTP/NCI, 2004).
Several values for one entry are separate records, joined by “and”; a condition that tells them apart may be missing. Identical values can stand only once. Toxic doses and inconclusive results are not listed.

Test system: CD2F1 mice, L1210 leukemia ip, survival T/C
Assay: NCI In Vivo Anticancer Drug Screen. Data for tumor model L1210 Leukemia (intraperitoneal) in CD2F1 (CDF1) mice
Settings: higher = longer survival
Outline: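 Mice carrying a transplanted tumor received test compound or vehicle alone. The value is the measurement in the treated group divided by that in the vehicle-treated control group.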

[1] = endpoint: mean survival time, dose: 100.0 mg/kg/injection, schedule: Q01DX001 (ip), vehicle: saline
[2] = endpoint: mean survival time, dose: 100.0 mg/kg/injection, schedule: Q04DX003 (ip), vehicle: saline with Tween-80
[3] = endpoint: mean survival time, dose: 200.0 mg/kg/injection, schedule: Q04DX003 (ip), vehicle: saline with Tween-80
[4] = endpoint: mean survival time, dose: 400.0 mg/kg/injection, schedule: Q04DX003 (ip), vehicle: saline with Tween-80
[5] = endpoint: mean survival time, dose: 50.0 mg/kg/injection, schedule: Q01DX001 (ip), vehicle: saline with Tween-80
[6] = endpoint: mean survival time, dose: 100.0 mg/kg/injection, schedule: Q01DX001 (ip), vehicle: saline with Tween-80
[7] = endpoint: mean survival time, dose: 200.0 mg/kg/injection, schedule: Q01DX001 (ip), vehicle: saline with Tween-80
[8] = endpoint: mean survival time, dose: 50.0 mg/kg/injection, schedule: Q01DX009 (ip), vehicle: Klucel (hydroxypropylcellulose) (HPC)
[9] = endpoint: mean survival time, dose: 100.0 mg/kg/injection, schedule: Q01DX009 (ip), vehicle: Klucel (hydroxypropylcellulose) (HPC)
[10] = endpoint: mean survival time, dose: 100.0 mg/kg/injection, schedule: Q04DX003 (ip), vehicle: saline
[11] = endpoint: mean survival time, dose: 200.0 mg/kg/injection, schedule: Q04DX003 (ip), vehicle: saline
[12] = endpoint: mean survival time, dose: 100.0 mg/kg/injection, schedule: Q01DX009 (ip), vehicle: saline with Tween-80
[13] = endpoint: mean survival time, dose: 200.0 mg/kg/injection, schedule: Q01DX009 (ip), vehicle: saline with Tween-80
[14] = endpoint: mean survival time, dose: 25.0 mg/kg/injection, schedule: Q04DX003 (ip), vehicle: other
[15] = endpoint: mean survival time, dose: 50.0 mg/kg/injection, schedule: Q04DX003 (ip), vehicle: other
[16] = endpoint: mean survival time, dose: 100.0 mg/kg/injection, schedule: Q04DX003 (ip), vehicle: other
[17] = endpoint: mean survival time, dose: 100.0 mg/kg/injection, schedule: Q01DX009 (ip), vehicle: saline
[18] = endpoint: mean survival time, dose: 50.0 mg/kg/injection, schedule: Q01DX009 (ip), vehicle: saline with Tween-80
[19] = endpoint: mean survival time, dose: 400.0 mg/kg/injection, schedule: Q01DX009 (ip), vehicle: saline with Tween-80

With `CCOC1(C)OC2C(CO)OC(n3ccc4c(N)ncnc43)C2O1` (stereo not given) the T/C [1] was 111 % of control.

In the case of `CCC(c1ccc(O)c(CN(CC)CC)c1)C(CC)c1ccc(O)c(CN(CC)CC)c1` (stereo not given), the T/C (endpoint: mean survival time, dose: 100.0 mg/kg/injection, schedule: Q04DX002 (ip), vehicle: saline with Tween-80) is reported as 92 % of control and the T/C (endpoint: mean survival time, dose: 200.0 mg/kg/injection, schedule: Q04DX002 (ip), vehicle: saline with Tween-80) is reported as 92 % of control.

With `O=c1c2nccnc2nc2n1CCCCC2` the T/C (endpoint: mean survival time, dose: 75.0 mg/kg/injection, schedule: Q01DX001 (ip), vehicle: saline) was 100 % of control, the T/C (endpoint: mean survival time, dose: 150.0 mg/kg/injection, schedule: Q01DX001 (ip), vehicle: saline) was 103 % of control and the T/C (endpoint: mean survival time, dose: 300.0 mg/kg/injection, schedule: Q01DX001 (ip), vehicle: saline) was 103 % of control.

For `CC1=C(C)C(=O)O[C@@H]([C@](C)(O)[C@]2(O)CC[C@@]3(O)[C@@H]4C[C@H]5O[C@]56[C@@H](O)C=CC(=O)[C@]6(C)[C@H]4CC[C@]23C)C1`, the T/C (endpoint: mean survival time, dose: 1.0 mg/kg/injection, schedule: Q01DX009 (ip), vehicle: saline) was 113 % of control, the T/C (endpoint: mean survival time, dose: 2.0 mg/kg/injection, schedule: Q01DX009 (ip), vehicle: saline) was 104 % of control and the T/C (endpoint: mean survival time, dose: 2.0 mg/kg/injection, schedule: Q01DX009 (ip), vehicle: suspension in saline) was 105 % of control. For the same compound, the T/C (endpoint: mean survival time, dose: 4.0 mg/kg/injection, schedule: Q01DX009 (ip), vehicle: saline) was 106 % of control, the T/C (endpoint: mean survival time, dose: 4.0 mg/kg/injection, schedule: Q01DX009 (ip), vehicle: suspension in saline) was 108 % of control and the T/C (endpoint: mean survival time, dose: 8.0 mg/kg/injection, schedule: Q01DX009 (ip), vehicle: saline) was 111 % of control. The T/C (endpoint: mean survival time, dose: 8.0 mg/kg/injection, schedule: Q01DX009 (ip), vehicle: suspension in saline) was 114 % of control, the T/C (endpoint: mean survival time, dose: 16.0 mg/kg/injection, schedule: Q01DX009 (ip), vehicle: saline) was 103 % of control and the T/C (endpoint: mean survival time, dose: 16.0 mg/kg/injection, schedule: Q01DX009 (ip), vehicle: suspension in saline) was 108 % of control. The T/C (endpoint: mean survival time, dose: 32.0 mg/kg/injection, schedule: Q01DX009 (ip), vehicle: saline) was 87 % of control and the T/C (endpoint: mean survival time, dose: 32.0 mg/kg/injection, schedule: Q01DX009 (ip), vehicle: suspension in saline) was 96 % of control.

For `Cc1cc(Br)ccc1N`, the T/C [2] was 97 % of control, the T/C [3] was 96 % of control and the T/C [4] was 97 % of control.

For `Nc1nc(N)c(-c2ccc(Cl)c(Cl)c2)c(CCc2ccc(NC(=O)Nc3ccc(S(=O)(=O)F)cc3)cc2)n1`, the T/C [5] was 91 % of control, the T/C [6] was 91 % of control and the T/C [7] was 94 % of control.

`NCc1cccn1OCc1ccccc1` was tested, and the T/C (endpoint: mean survival time, dose: 25.0 mg/kg/injection, schedule: Q01DX009 (ip), vehicle: Klucel (hydroxypropylcellulose) (HPC)) was 96 % of control, the T/C [8] was 96 % of control and the T/C [9] was 107 % of control.

With `O=C(O)C1(c2ccccc2)OCCO1` the T/C [10] was 103 % of control, the T/C [11] was 103 % of control and the T/C (endpoint: mean survival time, dose: 400.0 mg/kg/injection, schedule: Q04DX003 (ip), vehicle: saline) was 97 % of control.

With `CC1(C)CC(=O)C2(C)CCC(=O)C=C2C1` (stereo not given) the T/C [2] was 101 % of control, the T/C [3] was 100 % of control and the T/C [4] was 100 % of control.

For `CCOC(=O)c1ncn(C2OC(COC(=O)c3ccccc3)C(OC(=O)c3ccccc3)C2OC(=O)c2ccccc2)c1C` (stereo not given), the T/C (endpoint: median survival time, dose: 48.9 mg/kg/injection, schedule: Q01DX005 (ip), vehicle: saline with Tween-80) was 98 % of control, the T/C (endpoint: median survival time, dose: 97.8 mg/kg/injection, schedule: Q01DX005 (ip), vehicle: saline with Tween-80) was 100 % of control and the T/C (endpoint: median survival time, dose: 195.6 mg/kg/injection, schedule: Q01DX005 (ip), vehicle: saline with Tween-80) was 90 % of control.

In the case of `BrC1(Br)C2CCCCCCC21` (stereo not given), the T/C [12] is reported as 91 % of control, the T/C [2] is reported as 87 % of control and the T/C [13] is reported as 87 % of control. The T/C [3] was 98 % of control and the T/C [4] was 96 % of control.

`CC(=O)Nc1ncc2ccccc2c1-c1ccc(NC(=O)CN(CCO)CCO)cc1` was tested, and the T/C [14] was 104 % of control, the T/C [15] was 108 % of control and the T/C [16] was 100 % of control. The T/C (endpoint: mean survival time, dose: 200.0 mg/kg/injection, schedule: Q04DX003 (ip), vehicle: other) was 96 % of control and the T/C (endpoint: mean survival time, dose: 400.0 mg/kg/injection, schedule: Q04DX003 (ip), vehicle: other) was 104 % of control.

For `CN(C)[C@@H]1C(=O)C(C(N)=O)=C(O)[C@]2(O)C(=O)C3C(=O)c4c(O)ccc(Cl)c4[C@](C)(O)[C@H]3C[C@@H]12` (stereo not given in full), the T/C [8] was 107 % of control, the T/C [9] was 118 % of control and the T/C (endpoint: mean survival time, dose: 225.0 mg/kg/injection, schedule: Q01DX009 (ip), vehicle: acetone) was 101 % of control.

`N/C(=N\O)c1cn(C2OC(CO)C(O)C2O)c2ncnc(N)c12` (stereo not given) was tested, and the T/C (endpoint: mean survival time, dose: 8.0 mg/kg/injection, schedule: Q01DX007 (ip), vehicle: saline) was 111 % of control.

For `COc1cccc2c1C(=O)c1c(O)c3c(c(O)c1C2=O)C[C@@](O)(C(=O)COC(C)=O)C[C@@H]3OC1CC(N)C(O)C(C)O1` (stereo not given in full), the T/C (endpoint: mean survival time, dose: 3.0 mg/kg/injection, schedule: Q01DX009 (ip), vehicle: saline) was 156 % of control and the T/C (endpoint: mean survival time, dose: 3.0 mg/kg/injection, schedule: Q04DX003 (ip), vehicle: saline with Tween-80) was 118 % of control.

`O=C(O)CC1NCCC12OCCO2` (stereo not given) was tested, and the T/C [1] was 97 % of control, the T/C [17] was 98 % of control and the T/C (endpoint: mean survival time, dose: 200.0 mg/kg/injection, schedule: Q01DX001 (ip), vehicle: saline) was 102 % of control. For the same compound, the T/C (endpoint: mean survival time, dose: 200.0 mg/kg/injection, schedule: Q01DX009 (ip), vehicle: saline) was 98 % of control, the T/C (endpoint: mean survival time, dose: 400.0 mg/kg/injection, schedule: Q01DX001 (ip), vehicle: saline) was 92 % of control and the T/C (endpoint: mean survival time, dose: 400.0 mg/kg/injection, schedule: Q01DX009 (ip), vehicle: saline) was 101 % of control.

With `C=CCSc1ncnc2c1ncn2C1OC(CO)C(O)C1O` (stereo not given) the T/C (endpoint: mean survival time, dose: 88.0 mg/kg/injection, schedule: Q01DX009 (ip), vehicle: carboxymethylcellulose (CMC)) was 154 % of control and the T/C (endpoint: mean survival time, dose: 133.0 mg/kg/injection, schedule: Q01DX009 (ip), vehicle: carboxymethylcellulose (CMC)) was 158 % of control.

For `CC(=O)O/C=C1\CC2C3CC=C4CC(OC(C)=O)CCC4(C)C3CCC2(C)C1=O` (stereo not given), the T/C (endpoint: mean survival time, dose: 25.0 mg/kg/injection, schedule: Q01DX001 (ip), vehicle: saline with Tween-80) was 100 % of control, the T/C [5] was 95 % of control and the T/C [6] was 95 % of control.

With `O=C1C2(CCCCC2)C(=O)C12CCCCC2` the T/C [18] was 96 % of control, the T/C [12] was 110 % of control and the T/C [13] was 93 % of control.

With `CC(=O)C(C(C)=O)C(c1ccccn1)C(C(C)=O)C(C)=O` the T/C [2] was 106 % of control, the T/C [3] was 98 % of control and the T/C [4] was 93 % of control.

For `O=C1N(c2ccccc2)SN2C3C=CC(C4CC43)N12` (stereo not given), the T/C (endpoint: mean survival time, dose: 12.5 mg/kg/injection, schedule: Q04DX002 (ip), vehicle: saline with Tween-80) was 114 % of control and the T/C (endpoint: mean survival time, dose: 25.0 mg/kg/injection, schedule: Q04DX002 (ip), vehicle: saline with Tween-80) was 105 % of control.

With `Cc1cccc(NC(=O)Nc2ccc(Oc3ccccc3Cl)c(S(=O)(=O)O)c2)c1` the T/C (endpoint: mean survival time, dose: 50.0 mg/kg/injection, schedule: Q01DX009 (ip), vehicle: saline) was 101 % of control, the T/C [17] was 95 % of control and the T/C [10] was 95 % of control. The T/C [11] was 95 % of control.

With `CSc1nc2cc(C)c(C)cc2[nH]1` the T/C [6] was 103 % of control, the T/C [12] was 97 % of control and the T/C [7] was 97 % of control. For the same compound, the T/C [13] was 97 % of control, the T/C (endpoint: mean survival time, dose: 400.0 mg/kg/injection, schedule: Q01DX001 (ip), vehicle: saline with Tween-80) was 105 % of control and the T/C [19] was 94 % of control.

With `CCCCCCCCCCCCC(=O)OC` the T/C [12] was 107 % of control, the T/C [13] was 106 % of control and the T/C [19] was 105 % of control.

In the case of `NC(=O)c1ccn(C2OC(CO)C(O)C2O)n1` (stereo not given), the T/C (endpoint: mean survival time, dose: 200.0 mg/kg/injection, schedule: Q01DX005 (ip), vehicle: other) is reported as 106 % of control, the T/C (endpoint: mean survival time, dose: 400.0 mg/kg/injection, schedule: Q01DX005 (ip), vehicle: other) is reported as 107 % of control and the T/C (endpoint: mean survival time, dose: 800.0 mg/kg/injection, schedule: Q01DX005 (ip), vehicle: other) is reported as 117 % of control.

`NC(=S)Nc1ccc([N+](=O)[O-])cc1` was tested, and the T/C [14] was 96 % of control, the T/C [15] was 91 % of control and the T/C [16] was 88 % of control and 95 % of control.

For `O=C(O)/C=C/C1=CCCCC1`, the T/C [18] was 101 % of control, the T/C [12] was 93 % of control and the T/C [13] was 93 % of control.

In the case of `COC(=O)C1C2C=CC(C3CCC23)C1C(=O)OC` (stereo not given), the T/C [12] is reported as 100 % of control, the T/C [13] is reported as 93 % of control and the T/C [19] is reported as 91 % of control.
